We go through 2 molecules from patent US20260078130A1, “NAMPT MODULATORS, PREPARATIONS, AND USES THEREOF” (SIRONAX LTD., priority 2022, published 2026).

Where two headings read alike, the source gives them in different places. Where only a bound is given, the exact number is not on record here.

The target in assay [1] is T1, human enzyme NAMPT (full length) (Homo sapiens, UniProt P43490).
T1 construct: human enzyme NAMPT (full length)
Put plainly: NMN fluorescence biochemical assay (stimulation of NMN synthesis by NAMPT). The conditions noted are these: for EC50: concentration giving half-maximal activation, read-out: Enzymatic EC50; for Enzymatic Emax: fold change of maximal activation compared to DMSO. The method in brief: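 Full-length human NAMPT (100 nM) was preincubated 15 min at 37 °C with compound in 50 mM Tris-HCl pH 7.5, 10 mM MgCl2, 2 mM DTT, then reacted 1 h at 37 °C with 50 μM NAM, 100 μM PRPP, 4 mM ATP (stated solution concentrations). NMN was derivatised with acetophenone/KOH then formic acid and read at Ex/Em 382/445 nm; EC50 and Emax (fold over DMSO) reported.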

Assay [2] concerns endogenous NAMPT in U2OS cells. Put plainly: Cellular NAD+ modulation assay (NAD/NADH-Glo, U2OS cells). Format: cell-based. The following applies: Homo sapiens; for maximal fold induction: read-out: Cellular Emax. The method in brief: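 Endogenous NAMPT stimulation in U2OS cells treated with compound dilution series for 24 h at 37 °C. Cells lysed with DTAB base, acid-treated 15 min at 60 °C, neutralized, NAD+ read by NAD/NADH-Glo luminescence after 40 min at room temperature. EC50 and Emax (fold over DMSO) derived.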

Where [3] appears, read: 24 hours incubation, cellular NAD+.
[4] abbreviates: 24 hours incubation with compound.

T1 sequence (P43490 whole entry): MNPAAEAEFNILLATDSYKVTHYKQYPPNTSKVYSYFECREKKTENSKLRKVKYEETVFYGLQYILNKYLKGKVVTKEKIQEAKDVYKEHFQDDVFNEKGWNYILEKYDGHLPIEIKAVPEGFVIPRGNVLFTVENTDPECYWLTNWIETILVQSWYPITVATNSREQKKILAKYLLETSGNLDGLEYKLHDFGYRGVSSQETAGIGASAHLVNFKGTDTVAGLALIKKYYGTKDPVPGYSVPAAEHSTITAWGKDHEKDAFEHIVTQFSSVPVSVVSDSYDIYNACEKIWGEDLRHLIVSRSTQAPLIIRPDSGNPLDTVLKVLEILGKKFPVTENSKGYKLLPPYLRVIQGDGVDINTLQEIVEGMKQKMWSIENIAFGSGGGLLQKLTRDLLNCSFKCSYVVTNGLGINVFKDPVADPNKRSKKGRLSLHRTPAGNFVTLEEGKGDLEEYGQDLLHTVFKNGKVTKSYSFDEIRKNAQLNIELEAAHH

The term EC50 denotes the concentration at which the effect is half-maximal. `Cc1noc2cc(CN3C(=O)c4ccccc4C3Cc3c(Cl)cnn3C)ccc12` (centres unmarked) [Compound 594, 3-((4-chloro-1-methyl-1H-pyrazol-5-yl)methyl)-2-((3-methylbenzo[d]isoxazol-6-yl)methyl)isoindolin-1-one]: the EC50 in assay [1] (NMN fluorescence assay, purified human NAMPT 100 nM) is at least 5000 nM. In addition, in assay [1], the “Enzymatic Emax” value is listed as “B (3≥B>2)”. For the same molecule, in assay [2] (setting [3]), the 50% effective concentration (EC50) was below 500 nM and the maximal fold induction was in the range of 1.2 to 1.5.

As to `O=C1c2ccc(C3CC3)cc2C(Cc2ccccc2)N1Cc1ccc2[nH]c(=O)oc2c1` (centres unmarked) [Compound 116, 6-((3-benzyl-5-cyclopropyl-1-oxoisoindolin-2-yl)methyl)benzo[d]oxazol-2(3H)-one], in assay [1] (NMN synthesis by purified human NAMPT (100 nM)), the concentration for a half-maximal effect (EC50) is below 500 nM. The “Enzymatic Emax” value in assay [1] is “B (3≥B>2)”. Moreover, in assay [2] (setting [4]), the EC50 was in the range of 500 to 5000 nM and the maximal fold induction was above 1.5.
